The record followed here is patent EP0882015B1, “DIPHENYL STILBENES AS PRODRUGS TO COX-2 INHIBITORS” (Merck Frosst Canada & Co., priority 1996, dated 1997).

The nature of the data set: Rat plasma levels, per os pharmacokinetics in rats (conversion of prodrug to active COX-2 inhibitor). The class given is in vivo, Male Sprague Dawley rats. The note with it: maximum plasma concentration of the corresponding lactone (active COX-2 inhibitor) observed in rats dosed at 20 mg/kg orally with the indicated prodrug. The text has this: The animals are housed, fed and cared for according to the Guidelines of the Canadian Council on Animal Care.
Male Sprague Dawley rats (325-375 g) are fasted overnight prior to each PO blood level study.
The rats are placed in the restrainer one at a time and the box is firmly secured. The zero blood sample is obtained by nicking a small (1 mm or less) piece off the tip of the tail. The tail is then stroked with a firm but gentle motion from the top to the bottom to milk out the blood. Approximately 1 mL of blood is collected into a heparinized vacutainer tube.
Compounds are prepared as required, in a standard dosing volume of 10mL/kg, and administered orally by passing a 16 gauge, 3" gavaging needle into the stomach.
Subsequent bleeds are taken in the same manner as the zero bleed except that there is no need to nick the tail again. The tail is cleaned with a piece of gauze and milked/stroked as described above into the appropriately labelled tubes.
Immediately after sampling, blood is centrifuged, separated, put into clearly marked vials and stored in a freezer until analysed. […]
For analysis, aliquots are diluted with an equal volume of acetonitrile and centrifuged to remove protein precipitate. […] Quantitation is done relative to a clean blood sample spiked with a known quantity of drug. […]

In the case of `COC(=O)/C(=C(\C)c1ccc(S(C)(=O)=O)cc1)c1ccccc1` [Example 1, (E)-3-(4-Methylsulfonyl)phenyl-2-phenylbut-2-enoic acid methyl ester], the “Plasma Levels” value turned out to be 1000 nM.
